Reference: ChEMBL document CHEMBL2202954, “The effect of PLC-γ2 inhibitors on the growth of human tumour cells” (2012)

Experiments:
Type in all cases: functional
[1] = tested on: MDA-MB-468; assay: Cytotoxicity against human MDA-MB-468 cells by SRB assay
[2] = tested on: MDA-MB-435; assay: Cytotoxicity against human MDA-MB-435 cells by SRB assay; settings: for CC50: read-out: LC50 (the source's name)
[3] = tested on: SF-295; assay: Cytotoxicity against human SF295 cells by SRB assay
[4] = tested on: SR; assay: Cytotoxicity against human SR cells by SRB assay
[5] = tested on: RPMI-8226; assay: Cytotoxicity against human RPMI8226 cells by SRB assay
[6] = tested on: MOLT-4; assay: Cytotoxicity against human MOLT4 cells by SRB assay
[7] = tested on: K562; assay: Cytotoxicity against human K562 cells by SRB assay
[8] = tested on: HL-60(TB); assay: Cytotoxicity against human HL-60(TB) cells by SRB assay
[9] = tested on: CCRF-CEM; assay: Cytotoxicity against human CCRF-CEM cells by SRB assay

Row | Structure (SMILES) | GI50 [1] [nM] | TGI [1] [nM] | GI50 [2] [nM] | TGI [2] [nM] | GI50 [3] [nM] | GI50 [4] [nM] | TGI [4] [nM] | GI50 [5] [nM] | TGI [5] [nM] | GI50 [6] [nM] | TGI [6] [nM] | GI50 [7] [nM] | TGI [7] [nM] | GI50 [8] [nM] | TGI [8] [nM] | GI50 [9] [nM] | TGI [9] [nM] | TGI [3] [nM] | CC50 [2] [nM]
1 | Cc1cc(C)c(NC(=O)c2sc3nc4c(cc3c2N)C(=O)CCC4)c(C)c1 | 596 | 3650 | 267 | 1160 | 399 | 3600 | > 100000 | 3600 | > 100000 | 3600 | > 100000 | 3600 | > 100000 | 3600 | > 100000 | 3600 | > 100000 |  | 
2 | Cc1ccc(Cl)cc1NC(=O)c1sc2nc3c(cc2c1N)C(=O)CCC3 | 2740 | 8760 | 1100 | 5040 | 2330 | 3500 | > 100000 | 3500 | > 100000 | 3500 | > 100000 | 3500 | > 100000 | 3500 | > 100000 | 3500 | > 100000 | 7440 | 
3 | Cc1ccccc1NC(=O)c1sc2nc3c(cc2c1N)C(=O)CCC3 | 529 | 6210 | 331 | 1980 | 1330 | 4300 | > 100000 | 4300 | > 100000 | 4300 | > 100000 | 4300 | > 100000 | 4300 | > 100000 | 4300 | > 100000 |  | 
4 | Nc1c(C(=O)Nc2ccccc2)sc2nc3c(cc12)C(=O)CCC3 | 150 | 583 | 89 | 297 | 372 | 520 | > 100000 | 520 | > 100000 | 520 | > 100000 | 520 | > 100000 | 520 | > 100000 | 520 | > 100000 |  | 
5 | Nc1c(C(=O)Nc2cccc(Cl)c2)sc2nc3c(cc12)C(=O)CCC3 | 45 | 622 | 45 | 270 | 213 | 200 | > 100000 | 200 | > 100000 | 200 | > 100000 | 200 | > 100000 | 200 | > 100000 | 200 | > 100000 | 781 | 900
6 | Nc1c(C(=O)Nc2ccccc2F)sc2nc3c(cc12)C(=O)CCC3 | 238 | 952 | 196 | 567 | 570 | 1800 | > 100000 | 1800 | > 100000 | 1800 | > 100000 | 1800 | > 100000 | 1800 | > 100000 | 1800 | > 100000 | 85700 | 8000
